Reference: PMC11287240 (RSC Advances, 2024)

Key:
[1] = biological target: EeAChE (Electrophorus electricus acetylcholinesterase) (Electrophorus electricus, UniProt O42275); test: AChE inhibition assay; type: biochemical, electric eel
[2] = biological target: hBACE 1 (Homo sapiens, UniProt P56817); test: BACE 1 FRET inhibition assay; type: biochemical; conditions: human BACE 1
[3] = hBACE 1 IC50 (μM) ± SD, mean ± SD, n = 3, FRET assay

Chain of EeAChE (Electrophorus electricus acetylcholinesterase) (O42275 24-633): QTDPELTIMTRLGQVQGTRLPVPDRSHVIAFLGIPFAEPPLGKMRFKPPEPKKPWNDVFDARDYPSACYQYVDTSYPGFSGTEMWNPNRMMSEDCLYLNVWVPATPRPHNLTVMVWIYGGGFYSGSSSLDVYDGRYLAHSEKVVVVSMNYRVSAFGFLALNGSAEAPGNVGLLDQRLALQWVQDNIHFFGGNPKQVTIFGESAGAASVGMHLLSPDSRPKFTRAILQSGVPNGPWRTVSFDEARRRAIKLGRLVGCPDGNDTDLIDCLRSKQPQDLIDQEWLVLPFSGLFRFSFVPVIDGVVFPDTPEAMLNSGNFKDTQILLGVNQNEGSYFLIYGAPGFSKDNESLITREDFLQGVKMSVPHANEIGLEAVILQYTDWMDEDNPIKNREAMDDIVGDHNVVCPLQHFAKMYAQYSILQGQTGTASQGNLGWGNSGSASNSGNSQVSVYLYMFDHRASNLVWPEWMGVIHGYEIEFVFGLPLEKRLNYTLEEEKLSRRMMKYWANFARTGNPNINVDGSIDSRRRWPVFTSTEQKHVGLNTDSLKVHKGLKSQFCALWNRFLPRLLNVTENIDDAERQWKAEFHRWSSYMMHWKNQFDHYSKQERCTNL
Chain of hBACE 1 (P56817 46-501): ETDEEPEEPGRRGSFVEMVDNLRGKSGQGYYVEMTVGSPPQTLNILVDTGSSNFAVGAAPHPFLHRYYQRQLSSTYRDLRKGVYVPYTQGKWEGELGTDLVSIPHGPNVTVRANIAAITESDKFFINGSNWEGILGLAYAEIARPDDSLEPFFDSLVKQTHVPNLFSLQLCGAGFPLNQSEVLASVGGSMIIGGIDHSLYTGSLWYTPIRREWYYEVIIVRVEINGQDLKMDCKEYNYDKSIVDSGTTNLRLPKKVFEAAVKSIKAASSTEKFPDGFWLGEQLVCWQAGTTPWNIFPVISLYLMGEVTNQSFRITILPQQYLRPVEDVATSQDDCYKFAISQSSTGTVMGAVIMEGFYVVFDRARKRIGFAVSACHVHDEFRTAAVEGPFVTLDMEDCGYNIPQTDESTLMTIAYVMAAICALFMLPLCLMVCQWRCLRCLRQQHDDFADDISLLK

SMILES | IC50 [1] | IC50 [2, 3] | IC50 ([2]; hBACE 1 PIC50 (μM))
[H]/N=C(/N)NN=C(/C=C/c1ccc(C(F)(F)F)cc1)c1cn(Cc2ccc(CCCC)cc2)c2ccccc12 [Compound 3j, (Z)-2-((E)-1-(1-(4-Butylbenzyl)-1H-indol-3-yl)-3-(4-(trifluoromethyl)phenyl)allylidene)hydrazine-1-carboximidamide] | 13.4 ± 0.49 µM | 182.4 ± 1.41 µM | 182 µM
[H]/N=C(/N)NN=C(/C=C/c1ccccc1)c1cn(Cc2ccccc2F)c2ccccc12 [Compound 2h, (Z)-2-((E)-1-(1-(2-Fluorobenzyl)-1H-indol-3-yl)-3-phenylallylidene)hydrazine-1-carboximidamide] | 62.86 ± 0.62 µM | 143.2 ± 0.21 µM | 145 µM
[H]/N=C(/N)NN=C(/C=C/c1ccc(OCc2ccccc2)cc1)c1cn(Cc2ccc(C)cc2)c2ccccc12 [Compound 3e, (Z)-2-((E)-3-(4-(Benzyloxy)phenyl)-1-(1-(4-methylbenzyl)-1H-indol-3-yl)allylidene)hydrazine-1-carboximidamide] | 144 ± 1.77 µM | 107 ± 2.55 µM | 107 µM
[H]/N=C(/N)NN=C(/C=C/c1ccccc1)c1cn(Cc2ccc(F)cc2C(F)(F)F)c2ccccc12 [Compound 2d, (Z)-2-((E)-1-(1-(4-Fluoro-2-(trifluoromethyl)benzyl)-1H-indol-3-yl)-3-phenylallylidene)hydrazine-1-carboximidamide] | 169 ± 1.91 µM | 140.9 ± 1.06 µM | 141 µM
[H]/N=C(/N)NN=C(/C=C/c1ccc(C(C)(C)C)cc1)c1cn(Cc2ccc(C(C)(C)C)cc2)c2ccccc12 [Compound 3h, (Z)-2-((E)-1-(1-(4-(tert-Butyl)benzyl)-1H-indol-3-yl)-3-(4-(tert-butyl)phenyl)allylidene)hydrazine-1-carboximidamide] | 55.7 ± 3.17 µM | 179.2 ± 0.78 µM | 178 µM
[H]/N=C(/N)NN=C(/C=C/c1cccc(Br)c1)c1cn(Cc2ccccc2)c2ccccc12 [Compound 1h, (Z)-2-((E)-1-(1-Benzyl-1H-indol-3-yl)-3-(3-bromophenyl)allylidene)hydrazine-1-carboximidamide] | 66.3 ± 1.72 µM | 15.1 ± 0.74 µM | 15.1 µM
[H]/N=C(/N)NN=C(/C=C/c1ccc(C)cc1)c1cn(Cc2ccccc2)c2ccccc12 [Compound 1k, (Z)-2-((E)-1-(1-Benzyl-1H-indol-3-yl)-3-(p-tolyl)allylidene)hydrazine-1-carboximidamide] | 186 ± 2.69 µM | 132.1 ± 0.28 µM | 132 µM
[H]/N=C(/N)NN=C(/C=C/c1ccc(C(C)(C)C)cc1)c1cn(Cc2ccc(Br)cc2)c2ccccc12 [Compound 3g, (Z)-2-((E)-1-(1-(4-Bromobenzyl)-1H-indol-3-yl)-3-(4-(tert-butyl)phenyl)allylidene)hydrazine-1-carboximidamide] | 156 ± 2.62 µM | 178.2 ± 0.92 µM | 178 µM
[H]/N=C(/N)NN=C(/C=C/c1ccc(N(C)C)cc1)c1cn(Cc2ccccc2)c2ccccc12 [Compound 1g, (Z)-2-((E)-1-(1-Benzyl-1H-indol-3-yl)-3-(4-(dimethylamino)phenyl)allylidene)hydrazine-1-carboximidamide] | 78.2 ± 2.28 µM | 89 ± 2.29 µM | 89.1 µM
[H]/N=C(/N)NN=C(/C=C/c1ccc(C(C)(C)C)cc1)c1cn(Cc2ccc(-c3ccccc3)cc2)c2ccccc12 [Compound 3c, (Z)-2-((E)-1-(1-([1,1′-Biphenyl]-4-ylmethyl)-1H-indol-3-yl)-3-(4-(tert-butyl)phenyl)allylidene)hydrazine-1-carboximidamide] | 16.6 ± 1.04 µM | 201 ± 3.82 µM | 200 µM
[H]/N=C(/N)NN=C(/C=C/c1cc(OC)ccc1OC)c1cn(Cc2ccccc2)c2ccccc12 [Compound 1j, (Z)-2-((E)-1-(1-Benzyl-1H-indol-3-yl)-3-(2,5-dimethoxyphenyl)allylidene)hydrazine-1-carboximidamide] | 61 ± 2.29 µM | 72.2 ± 1.76 µM | 72.4 µM
[H]/N=C(/N)NN=C(/C=C/c1ccccc1)c1cn(Cc2ccc(Cl)cc2)c2ccccc12 [Compound 2f, (Z)-2-((E)-1-(1-(4-Chlorobenzyl)-1H-indol-3-yl)-3-phenylallylidene)hydrazine-1-carboximidamide] | 42.8 ± 2.79 µM | 213 ± 2.26 µM | 214 µM
